Measurements as given in US10448639B2, “Fungicidal pyrazoles” (FMC CORPORATION, priority 2009, dated 2019).
Like-named read-outs stand apart in the source and are kept apart here. Marks after values point to notes of the source that are not given here.

How the values were obtained:
Septoria nodorum = assay: Test F: Septoria glume blotch, preventive spray on wheat seedlings, visual disease rating; details: for Test F rating (% disease control) / Test F disease control rating: 100 = 100% disease control; for Test F disease control rating: 0 = no disease control relative to controls; for pest or weed control at 200 µg/mL: Parastagonospora nodorum, in Triticum aestivum, 192 h
Septoria tritici = assay: Test G: wheat leaf blotch, preventive spray on wheat seedlings, visual disease rating; details: wheat leaf blotch, preventive spray; 100 = 100% disease control, 0 = no control
Botrytis cinerea = assay: Test B: tomato Botrytis, preventive spray on tomato seedlings, visual disease rating; details: for Test B rating (% disease control) / Test B disease control rating: 100 = 100% disease control; for Test B disease control rating: 0 = no disease control relative to controls; for pest or weed control at 200 µg/mL: Botrytis cinerea, in Solanum lycopersicum, 120 h
[1] = system: Puccinia recondita f. sp. tritici; assay: Test I: wheat leaf rust, preventive spray on wheat seedlings, visual disease rating; details: for Test I rating (% disease control) / Test I disease control rating: 100 = 100% disease control; for Test I disease control rating: sprayed the day before inoculation, 0 = no disease control relative to controls; for pest or weed control at 200 µg/mL: 192 h
[2] = system: Erysiphe graminis f sp. tritici; assay: Test J: wheat powdery mildew, preventive spray on wheat seedlings, visual disease rating; details: for Test J rating (% disease control) / Test J disease control rating: 100 = 100% disease control; for Test J disease control rating: sprayed the day before inoculation, 0 = no disease control relative to controls; for pest or weed control at 200 µg/mL: Blumeria graminis, in Triticum aestivum, 192 h
From the text: General protocol for preparing test suspensions for Tests A-J: the test compounds were first dissolved in acetone in an amount equal to 3% of the final volume and then suspended at the desired concentration (in ppm) in acetone and purified water (50/50 mix by volume) containing 250 ppm of the surfactant Trem® 014 (polyhydric alcohol esters). The resulting test suspensions were then used in Tests A-J. Spraying a 200 ppm test suspension to the point of run-off on the test plants was the equivalent of a rate of 500 g/ha. Unless otherwise indicated, the rating values indicate a 200 ppm test suspension was used. (An asterisk “*” next to the rating value indicates a 40 ppm test suspension was used.)
The test suspension was sprayed to the point of run-off on wheat seedlings. The following day the seedlings were inoculated with a spore dust of Erysiphe graminis f sp. tritici, (the causal agent of wheat powdery mildew) and incubated in a growth chamber at 20° C. for 8 days, after which time visual disease ratings were made.

Alternaria solani = assay: Test C: tomato early blight, preventive spray on tomato seedlings, visual disease rating; details: for Test C rating (% disease control) / Test C disease control rating: 100 = 100% disease control; for Test C disease control rating: 0 = no disease control relative to controls; for pest or weed control at 200 µg/mL: Alternaria solani, in Solanum lycopersicum, 168 h
[3] = system: Puccinia recondita f. sp. tritici; assay: Test H: wheat leaf rust, curative spray on inoculated wheat seedlings, visual disease rating; details: for Test H rating (% disease control) / Test H disease control rating: 100 = 100% disease control; for Test H rating (% disease control): 0 = no control relative to controls; for Test H disease control rating: sprayed after inoculation, 0 = no disease control relative to controls; for pest or weed control at 200 µg/mL: 144 h
[4] = Septoria glume blotch on wheat, preventive spray, 0 = no control
[5] = tomato Botrytis, preventive spray, 0 = no control
[6] = wheat leaf rust, preventive spray, 0 = no control
[7] = wheat powdery mildew, preventive spray, 0 = no control
[8] = tomato early blight, preventive spray, 0 = no control
[9] = Septoria glume blotch, 0 = no control relative to controls
[10] = tomato Botrytis, 0 = no control relative to controls
[11] = wheat leaf rust, preventive, 0 = no control relative to controls
[12] = wheat powdery mildew, 0 = no control relative to controls
[13] = tomato early blight, 0 = no control relative to controls
[14] = read-out: Test F disease control rating
[15] = read-out: Test B disease control rating
[16] = read-out: Test I disease control rating
[17] = read-out: Test J disease control rating
[18] = read-out: Test C disease control rating
[19] = read-out: Test H disease control rating

For `Cc1nn(C)c(Nc2ccc(Cl)c(F)c2)c1-c1c(F)cc(F)cc1F` [compound 14], the “Test F rating (% disease control)” value (Septoria nodorum; [4]) was 0%, the “Test G rating (% disease control)” value (Septoria tritici) was 99% and the “Test B rating (% disease control)” value (Botrytis cinerea; [5]) was 98%. The “Test I rating (% disease control)” value [1, 6] was 99%, the “Test J rating (% disease control)” value [2, 7] was 98% and the “Test C rating (% disease control)” value (Alternaria solani; [8]) was 0%.

With `COc1ccc(-c2c(C)nn(C)c2Oc2ccc(Cl)cc2)c(F)c1` [compound 15] the “Test F rating (% disease control)” value (Septoria nodorum; [4]) was 73%, the “Test G rating (% disease control)” value (Septoria tritici) was 99% and the “Test B rating (% disease control)” value (Botrytis cinerea; [5]) was 99%. The “Test I rating (% disease control)” value [1, 6] was 98%, the “Test J rating (% disease control)” value [2, 7] was 99% and the “Test C rating (% disease control)” value (Alternaria solani; [8]) was 67%.

In the case of `Cc1nn(C)c(Oc2ccc(C#N)cc2Cl)c1-c1ccc(F)cc1Br` [compound 285], the “Test F rating (% disease control)” value (Septoria nodorum; [9]) is reported as 60%, the “Test B rating (% disease control)” value (Botrytis cinerea; [10]) is reported as 98% and the “Test I rating (% disease control)” value [1, 11] is reported as 99%. For the same compound, the “Test J rating (% disease control)” value [2, 12] was 99%, the “Test C rating (% disease control)” value (Alternaria solani; [13]) was 0% and the “Test H rating (% disease control)” value ([3]; wheat leaf rust, curative) was 9%.

For `Cc1nn(C)c(Nc2ccc(Cl)cc2Cl)c1-c1ccc(F)cc1Cl` [compound 299], the “Test F rating (% disease control)” value (Septoria nodorum; [9]) was 51%, the “Test B rating (% disease control)” value (Botrytis cinerea; [10]) was 100% and the “Test I rating (% disease control)” value [1, 11] was 100%. For the same compound, the “Test J rating (% disease control)” value [2, 12] was 100%, the “Test C rating (% disease control)” value (Alternaria solani; [13]) was 95% and the “Test H rating (% disease control)” value ([3]; wheat leaf rust, curative) was 41%.

For `Cc1nn(C)c(Nc2c(F)cc(Cl)cc2F)c1-c1ccc(F)cc1Cl` [Compound 286, N-(4-chloro-2,6-difluorophenyl)-4-(2-chloro-4-fluorophenyl)-1,3-dimethyl-1H-pyrazole-5-amine], the “Test F rating (% disease control), marked *” value (Septoria nodorum; Septoria glume blotch, rating marked with asterisk (*), meaning not given) was 60* %, the “Test B rating (% disease control), marked *” value (Botrytis cinerea; tomato Botrytis, rating marked with asterisk (*), meaning not given) was 98* % and the “Test I rating (% disease control), marked *” value ([1]; wheat leaf rust, preventive, rating marked with asterisk (*), meaning not given) was 100* %. For the same compound, the “Test J rating (% disease control), marked *” value ([2]; wheat powdery mildew, rating marked with asterisk (*), meaning not given) was 100* %, the “Test C rating (% disease control), marked *” value (Alternaria solani; tomato early blight, rating marked with asterisk (*), meaning not given) was 85* % and the “Test H rating (% disease control), marked *” value ([3]; wheat leaf rust, curative, rating marked with asterisk (*), meaning not given) was 100* %.

`Cc1nn(C)c(C(O)c2c(F)ccc(F)c2F)c1-c1ccc(F)cc1Cl` (racemic) [compound 356] was tested, and the “Test F disease control rating” value (Septoria nodorum; Septoria glume blotch on wheat) was 0%, the “Test B disease control rating” value (Botrytis cinerea; tomato Botrytis) was 100% and the “Test I disease control rating” value ([1]; wheat leaf rust) was 100%. The “Test J disease control rating” value ([2]; wheat powdery mildew) was 0%, the “Test C disease control rating” value (Alternaria solani; tomato early blight) was 0% and the “Test H disease control rating” value ([3]; wheat leaf rust) was 100%.

Work on `Cc1nn(C)c(C(O)c2ccc(F)cc2F)c1-c1ccc(F)cc1Cl` (stereo not drawn) [Compound 351, 4-(2-chloro-4-fluorophenyl)-α-(2,4-difluorophenyl)-1,3-dimethyl-1H-pyrazole-5-methanol] yielded a pest or weed control at 200 µg/mL (Septoria nodorum; [14]) of 92%, a pest or weed control at 200 µg/mL (Botrytis cinerea; [15]) of 100% and a pest or weed control at 200 µg/mL [1, 16] of 100%. It also gave a pest or weed control at 200 µg/mL [2, 17] of 99%, a pest or weed control at 200 µg/mL (Alternaria solani; [18]) of 99% and a pest or weed control at 200 µg/mL [3, 19] of 96%.

`Cc1nn(C)c(Oc2ccc(C#N)cc2F)c1-c1ccc(F)cc1Br` [Compound 284, 4-[[4-(2-bromo-4-fluorophenyl)-1,3-dimethyl-1H-pyrazol-5-yl]oxy]-3-fluorobenzonitrile] gave a pest or weed control at 200 µg/mL (Septoria nodorum; read-out: Test F rating (% disease control)) of 100%, a pest or weed control at 200 µg/mL (Botrytis cinerea; read-out: Test B rating (% disease control)) of 99% and a pest or weed control at 200 µg/mL ([1]; read-out: Test I rating (% disease control)) of 100%. It also gave a pest or weed control at 200 µg/mL ([2]; read-out: Test J rating (% disease control)) of 100%, a pest or weed control at 200 µg/mL (Alternaria solani; read-out: Test C rating (% disease control)) of 99% and a pest or weed control at 200 µg/mL ([3]; read-out: Test H rating (% disease control)) of 28%.

For `Cc1nn(C)c(C(O)c2ccc(F)cc2)c1-c1ccc(F)cc1Cl` (racemic) [compound 350], the “Test F disease control rating” value (Septoria nodorum; Septoria glume blotch on wheat) was 0%, the “Test B disease control rating” value (Botrytis cinerea; tomato Botrytis) was 99% and the “Test I disease control rating” value ([1]; wheat leaf rust) was 96%. For the same compound, the “Test J disease control rating” value ([2]; wheat powdery mildew) was 0%, the “Test C disease control rating” value (Alternaria solani; tomato early blight) was 9% and the “Test H disease control rating” value ([3]; wheat leaf rust) was 9%.

With `Cc1nn(C)c(Nc2ccc(Cl)c(F)c2)c1-c1c(F)cc(C#N)cc1F` [compound 125] the “Test F rating (% disease control)” value (Septoria nodorum; [4]) was 60%, the “Test G rating (% disease control)” value (Septoria tritici) was 99% and the “Test B rating (% disease control)” value (Botrytis cinerea; [5]) was 100%. The “Test I rating (% disease control)” value [1, 6] was 92%, the “Test J rating (% disease control)” value [2, 7] was 0% and the “Test C rating (% disease control)” value (Alternaria solani; [8]) was 67%.

In the case of `Cc1nn(C)c(Nc2ccc(Cl)cc2Cl)c1-c1c(F)cccc1Cl` [compound 283], the “Test F rating (% disease control)” value (Septoria nodorum; [9]) is reported as 0%, the “Test B rating (% disease control)” value (Botrytis cinerea; [10]) is reported as 99% and the “Test I rating (% disease control)” value [1, 11] is reported as 99%. The “Test J rating (% disease control)” value [2, 12] was 100%, the “Test C rating (% disease control)” value (Alternaria solani; [13]) was 65% and the “Test H rating (% disease control)” value ([3]; wheat leaf rust, curative) was 9%.

`COc1ccc(-c2c(C)nn(C)c2Nc2ccc(Cl)cc2Cl)c(Cl)c1` [compound 282] was tested, and the “Test F rating (% disease control)” value (Septoria nodorum; [9]) was 0%, the “Test B rating (% disease control)” value (Botrytis cinerea; [10]) was 99% and the “Test I rating (% disease control)” value [1, 11] was 99%. For the same compound, the “Test J rating (% disease control)” value [2, 12] was 100%, the “Test C rating (% disease control)” value (Alternaria solani; [13]) was 98% and the “Test H rating (% disease control)” value ([3]; wheat leaf rust, curative) was 0%.

In the case of `COc1cccc(Nc2c(-c3ccc(F)cc3F)c(C)nn2C)c1Cl` [compound 281], the “Test F rating (% disease control)” value (Septoria nodorum; [9]) is reported as 0%, the “Test B rating (% disease control)” value (Botrytis cinerea; [10]) is reported as 98% and the “Test I rating (% disease control)” value [1, 11] is reported as 94%. The “Test J rating (% disease control)” value [2, 12] was 98%, the “Test C rating (% disease control)” value (Alternaria solani; [13]) was 44% and the “Test H rating (% disease control)” value ([3]; wheat leaf rust, curative) was 0%.

In the case of `Cc1nn(C)c(Nc2c(Cl)cc(F)cc2Cl)c1-c1ccc(F)cc1Cl` [Compound 369, 4-(2-chloro-4-fluorophenyl)-N-(2,6-dichloro-4-fluorophenyl)-1,3-dimethyl-1H-pyrazol-5-amine], the pest or weed control at 200 µg/mL (Septoria nodorum; [14]) is reported as 0%, the pest or weed control at 200 µg/mL (Botrytis cinerea; [15]) is reported as 100% and the pest or weed control at 200 µg/mL [1, 16] is reported as 100%. It also gave a pest or weed control at 200 µg/mL [2, 17] of 99%, a pest or weed control at 200 µg/mL (Alternaria solani; [18]) of 66% and a pest or weed control at 200 µg/mL [3, 19] of 17%.

In the case of `COc1ccc(Oc2c(-c3ccc(F)cc3Cl)c(C)nn2C)c(F)c1` [compound 21], the “Test F rating (% disease control)” value (Septoria nodorum; [4]) is reported as 97%, the “Test B rating (% disease control)” value (Botrytis cinerea; [5]) is reported as 98% and the “Test I rating (% disease control)” value [1, 6] is reported as 100%. The “Test J rating (% disease control)” value [2, 7] was 99% and the “Test C rating (% disease control)” value (Alternaria solani; [8]) was 100%.

With `Cc1nn(C)c(Nc2ccc(Cl)c(Cl)c2)c1-c1c(F)cc(C#N)cc1F` [compound 123] the “Test F rating (% disease control)” value (Septoria nodorum; [4]) was 40%, the “Test G rating (% disease control)” value (Septoria tritici) was 99% and the “Test B rating (% disease control)” value (Botrytis cinerea; [5]) was 99%. For the same compound, the “Test I rating (% disease control)” value [1, 6] was 80%, the “Test J rating (% disease control)” value [2, 7] was 0% and the “Test C rating (% disease control)” value (Alternaria solani; [8]) was 0%.

For `Cc1ccc(Nc2c(-c3c(F)cc(C#N)cc3F)c(C)nn2C)cc1` [compound 124], the “Test F rating (% disease control)” value (Septoria nodorum; [4]) was 60%, the “Test G rating (% disease control)” value (Septoria tritici) was 99% and the “Test B rating (% disease control)” value (Botrytis cinerea; [5]) was 100%. The “Test I rating (% disease control)” value [1, 6] was 96%, the “Test J rating (% disease control)” value [2, 7] was 94% and the “Test C rating (% disease control)” value (Alternaria solani; [8]) was 78%.
